Measurements taken from patent US4518606A, “Pharmaceutical compositions” (Beecham Group Limited, priority 1979, dated 1985).

Tests used:
Type in all cases: in vivo
[1] = tested on: mice; assay: acute toxicity, intramuscular, mice; settings: 750 mg/kg in 3% solution (25 ml/kg)
Procedure: (§1) No mortality is observed in mice or rats treated at the rate of 750 mg/kg of benzyl alcohol in 3% solution (viz 25 ml/kg of solution) by the intramuscular route.

[2] = tested on: rats; assay: acute toxicity, intramuscular, rats; settings: 750 mg/kg in 3% solution (25 ml/kg)
Procedure: as §1

[3] = tested on: rats; assay: sub-acute toxicity, intramuscular, 2 weeks, male and female rats; settings: 150 mg/kg (5 ml/kg of 3% solution)
Procedure: Over a period of 2 weeks, 10 male rats and female rats receive 150 mg/kg of benzyl alcohol, that is to say 5 ml/kg of 3% aqueous solution by the intramuscular route. […] Within the context of the anatomopathological examination, the liver, kidneys, spleen, lungs, suprarenals, testicles and ovaries are normal.

`OCc1ccccc1` [benzyl alcohol] was tested, and the mortality [1] was “No mortality”, the mortality [2] was “No mortality” and the abnormal symptoms [3] was “No abnormal symptom appears”. For the same molecule, the “anatomopathological examination (liver, kidneys, spleen, lungs, suprarenals, testicles and ovaries)” value [3] was “normal”, the haematological variations [3] was “within the limits of physiological variations” and the “variations in blood and urine biochemistry” value [3] was “within the limits of physiological variations”. The variations in weight [3] was “within the limits of physiological variations”.
